Source: patent US7097848B2, “Synergistic insecticidal mixtures” (Bayer Cropscience AG, priority 2002, dated 2006)

Legend:
Type in all cases: in vivo
[1] = system: cotton aphid (Aphis gossypii); assay: Aphis gossypii test (cotton leaf dip); conditions: Table O (Example O); activity found
Excerpt: (§1) The expected activity for a given combination of two active compounds can be calculated as follows (cf. Carpenter, C. S., “Mammalian Toxicity of 1-naphthyl-N-methylcarbamate [Sevin Insecticide]”, Agricultural and Food Chemistry, Vol. 9, No. 1, pages 30–39, 1961):
(§2) If • Pa is the proportion of active compound A in the mixture, • Pb is the proportion of active compound B in the mixture, • LC50 (or 95)a is the concentration at which 50% (or 95%) of the animals treated with active compound A are killed and • LC50 (or 95)b is the concentration at which 50% (or 95%) of the animals treated with active compound B are killed,
(§3) If the calculated LC50 (or 95) exceeds the value actually obtained and is higher than the confidence interval, the activity of the combination is superadditive, i.e. a synergistic effect exists.
(§4) To produce a suitable preparation of active compound, 1 part by weight of active compound is mixed with the stated amounts of solvent and emulsifier, and the concentrate is diluted with emulsifier-containing water to the desired concentration.
Cotton leaves (Gossypium hirsutum), which are heavily infested by the cotton aphid (Aphis gossypii) are treated by being dipped into the preparation of active compound of the desired concentration.
After the desired period of time, the killed in % is determined. […] The determined kill rates are inserted into Carpenter's formula.

[2] = system: larvae of the mustard beetle (Phaedon cochleariae); assay: Phaedon larvae test (cabbage leaf dip); conditions: activity found; for LC50 after 6 days: Table D (Example D)
Excerpt: as §1, §2, §3, §4
Cabbage leaves (Brassica oleracea) are treated by being dipped into the preparation of active compound of the desired concentration and are populated with larvae of the mustard beetle (Phaedon cochleariae) while the leaves are still moist.
After the desired period of time, the kill in % is determined. 100% means that all beetle larvae have been killed; 0% means that none of the beetle larvae have been killed. The determined kill rates are inserted in Carpenter's formula.
(§5) To produce a suitable preparation of active compound, 1 part by weight of active compound is mixed with the stated amounts of solvent emulsifier, and the concentrate is diluted with emulsifier-containing water to the desired concentration.

[3] = system: green peach aphid (Myzus persicae); assay: Myzus test (cabbage leaf dip); conditions: activity found; for LC50 after 6 days: Table B (Example B)
Excerpt: as §1, §2, §3, §4
Cabbage leaves (Brassica oleracea), which are heavily infested by the green peach aphid (Myzus persicae) are treated by being dipped into the preparation of active compound of the desired concentration.
After the desired period of time, the killed in % is determined. 100% means that all aphids have been killed. The determined kill rates are inserted into Carpenter's formula.
After the desired period of time, the killed in % is determined. 100% means that all aphids have been killed; 0% means that none of the aphids have been killed. The determined kill rates are inserted into Carpenter's formula.

[4] = system: caterpillars of the diamondback moths (Plutella xylostella, sensitive strain); assay: Plutella test, sensitive strain (cabbage leaf dip); conditions: activity found
Excerpt: as §1, §2, §3, §4
Cabbage leaves (Brassica oleracea) are treated by being dipped into the preparation of active compound of the desired concentration and are populated with caterpillars of the diamondback moths (Plutella xylostella, sensitive strain) while the leaves are still moist.
(§6) After the desired period of time, the kill in % is determined. 100% means that all caterpillars have been killed; 0% means that none of the caterpillars have been killed. The determined kill rates are inserted in Carpenter's formula.
as §5

[5] = system: Heliothis armigera caterpillars; assay: Heliothis armigera test (soya bean shoot dip); conditions: activity found
Excerpt: as §1, §2, §3, §4
Soya bean shoots (glycine max) are treated by being dipped into the preparation of active compound of the desired concentration and are populated with Heliothis armigera caterpillars while the leaves are still moist.
After the desired period of time, the kill in % is determined. 100% means that all caterpillars have been killed; 0% means that none of the caterpillars have been killed. The determined kill rates are inserted into Carpenter's formula (see preceding page).
After the desired period of time, the kill in % is determined. 100% means that all caterpillars have been killed; 0% means that none of the caterpillars have been killed. The determined kill rates are inserted into Carpenter's formula.

[6] = system: caterpillars of the diamondback moths (Plutella xylostella, resistant strain); assay: Plutella test, resistant strain (cabbage leaf dip); conditions: Table M (Example M); activity found
Excerpt: as §1, §2, §3
To produce a suitable preparation of active compound, 1 part by weight of active compound is mixed with the stated amounts of solvent and emulsifier, and the concentrate is diluted with emulsifier-containing water to the desired concentration. […]
After the desired period of time, the kill in % is determined. […] The determined kill rates are inserted in Carpenter's formula.

[7] = system: caterpillars of the armyworm (Spodoptera frugiperda); assay: Spodoptera frugiperda test (cabbage leaf dip); conditions: activity found; for LC95 after 3 days: Table E (Example E)
Excerpt: as §1, §2, §3, §4
Cabbage leaves (Brassica oleracea) are treated by being dipped into the preparation of active compound of the desired concentration and are populated with caterpillars of the armyworm (Spodoptera frugiperda) while the leaves are still moist.
as §6

| Compound | LC95 after 6 days [1] [ppm] | LC95 after 6 days ([2]; Table Q (Example Q)) [ppm] | LC95 after 1 day ([3]; Table P (Example P)) [ppm] | LC95 after 6 days ([4]; Table R (Example R)) [ppm] | LC50 after 6 days ([5]; Table F (Example F)) [ppm] | LC95 after 6 days ([2]; Table G (Example G)) [ppm] | LC50 after 6 days ([5]; Table A (Example A)) [ppm] | LC50 after 6 days ([5]; Table J (Example J)) [ppm] | LC50 after 6 days [6] [ppm] | LC50 after 6 days [2] [ppm] | LC95 after 6 days ([2]; Table K (Example K)) [ppm] | LC95 after 3 days [7] [ppm] | LC50 after 6 days ([7]; Table I (Example I)) [ppm] | LC50 after 6 days ([7]; Table N (Example N)) [ppm] | LC50 after 6 days [3] [ppm] | LC95 after 1 day ([3]; Table H (Example H)) [ppm] | LC95 after 6 days ([4]; Table C (Example C)) [ppm] | LC95 after 6 days ([4]; Table L (Example L)) [ppm] |
| --- | --- | --- | --- | --- | --- | --- | --- | --- | --- | --- | --- | --- | --- | --- | --- | --- | --- | --- |
| CC1(C)[C@H](C(=O)O[C@H](C#N)c2cccc(Oc3ccccc3)c2)[C@@H]1/C=C(\Cl)C(F)(F)F (racemic) [lambda-cyhalothrin] | 10.545 | 11.234 | 11.234 | 0.09 | – | – | – | – | – | – | – | – | – | – | – | – | – | – |
| CC[C@H](C)[C@H]1O[C@]2(C=C[C@@H]1C)C[C@@H]1C[C@@H](C/C=C(\C)[C@@H](O[C@H]3C[C@H](OC)[C@@H](O[C@H]4C[C@H](OC)[C@@H](O)[C@H](C)O4)[C@H](C)O3)[C@@H](C)/C=C/C=C3\CO[C@@H]4[C@H](O)C(C)=C[C@@H](C(=O)O1)[C@]34O)O2 [avermectin] | – | – | – | – | 0.094 | 1.431 | – | – | – | – | – | – | – | – | – | – | – | – |
| CN/C(=N\[N+](=O)[O-])NCc1cnc(Cl)s1 [clothianidin] | 4.954 | 7.690 | 1.303 | 28.46 | 15.0 | 11.234 | 0.997 | 3.527 | 27.271 | 6.708 | 17.504 | 6.099 | 2.450 | 0.178 | 1.013 | 5.988 | 42.493 | 9.045 |
| CNC(=O)Oc1cc(C)c(SC)c(C)c1 [methiocarb] | – | – | – | – | – | – | – | – | – | – | – | – | 51.649 | – | – | 75.000 | – | – |
| CC1(C)C(C=C(Cl)Cl)C1C(=O)OC(C#N)c1ccc(F)c(Oc2ccccc2)c1 (stereo not drawn) [β-cyfluthrin] | – | – | – | – | – | – | 0.159 | – | – | 0.646 | – | 1.113 | – | – | 2.583 | – | 0.699 | – |
| emamectin benzoate | – | – | – | – | – | – | – | 0.007 | 0.0012 | – | 0.072 | – | – | 0.003 | – | – | – | 0.0009 |
